In patent publication US12227500B2, “Substituted pyrrolo[2,3-b]pyridines for suppressing toxic endoplasmic reticulum stress” (THE TRUSTEES OF COLUMBIA UNIVERSITY IN THE CITY OF NEW YORK, priority 2018, dated 2025):
Values joined by “and” are separate entries in the source; they are usually repeats but may differ in a detail not shown here. Equal entries are not always repeated. Where two headings read alike, the source gives them in different places.

Experiments:
[1] = test system: human ES motor neurons carrying the ALS-causing SOD1^A4V mutation; test: cells; type: cell-based; settings: for EC50 / Emax / viability at 1 µM: 72 h; for Emax: read-out: Emax (MN survival % untreated); for viability at 1 µM: CPA (33 μM) + compound (1 μM), read-out: Motor Neuron Survival, % untreated
Procedure: Next, survival assays were performed with all the analogs at once to generate a low-variability dataset. All compounds were evaluated at concentrations ranging from 0.1-3.0 μM (five-point dilution) in three technical replicates and two biological replicates.

[2] = Plasma and brain concentration 30 min after IP injection; type: in vivo, mouse; settings: mice, ip dosing; for Kp at 30 min / concentration at 30 min: male, C57BL6/J, mouse; for Kp at 30 min: brain/plasma, read-out: B/P
Procedure: All studies were performed on 6-week old male C57BL6/J mice that were housed in the Columbia University Medical Center facility in a 12h light/dark cycle with access to food and water ad libitum. All animal procedures were approved by the Columbia University IACUC. […] Animals were weighed and injected once intraperitoneally (IP) at the indicated dose (10 or 20 mg/kg). After 30 min, animals were deeply anesthetized with 2.5% Avertin. Whole blood was collected by cardiac puncture in tubes containing 0.5M EDTA as an anticoagulant, and centrifuged for 10 min at 845 rcf at 4° to isolate plasma. Following cardiac puncture, animals were decapitated and brains were dissected and weighed. Brain samples were homogenized with a glass dounce homogenizer in 5 volumes of ddH2O. Brain and plasma samples were snap frozen in liquid nitrogen and stored at −80° C. before further processing.
The plasma samples were transferred to Eppendorf tubes (50 μL per sample) and diluted with acetonitrile (200 μL). The samples were sonicated for 1 minute followed by centrifugation at 16,000 rpm for 10 minutes. The supernatant was transferred to another Eppendorf tube and the solvent evaporated overnight. The samples were reconstituted in a mixture of 40 μL acetonitrile and 10 μL water transferred to a sample vial with insert, and analyzed by LC-MS.
The homogenized brain samples (250 μL) were transferred to Eppendorf tubes and diluted with acetonitrile (750 μL). The samples were sonicated for 1 minute followed by centrifugation at 16,000 rpm for 10 minutes. The supernatant (900 μL) was transferred to another Eppendorf tube and the solvent evaporated overnight. The samples were reconstituted in a mixture of 80 μL acetonitrile and 20 μL water, transferred to a sample vial with insert, and analyzed by LC-MS.
LC-MS analysis was performed on a platform comprising a Thermo Scientific Dionex Ultimate 3000 and a Bruker amaZon SL equipped with an electrospray ionization source controlled by Bruker Hystar 3.2. The compound concentration in each plasma sample was determined using a calibration curve. Chromatographic separation was performed by injecting 10 μL of the sample onto an Agilent Eclipse Plus C18 column (2.1×50 mm, 3.5 μm) maintained at 20° C. The flow rate was maintained at 400 μL/min. The initial flow conditions were 60% solvent A (water containing 0.1% acetic acid) and 40% solvent B (methanol containing 0.1% acetic acid). Solvent B was raised to 60% over 0.25 minutes and to 70% by 6.75 minutes.

in vitro = settings: CD-1, mouse, liver microsomes, pH 7.4
Procedure: To test the metabolic stability of the analogs, an in vitro microsomal stability assay was carried out.
The microsomal stability assay was performed in 96-well format (Perkin-Elmer, StorPlate-96U, PP, 96 well, round bottom). […] A stock solution of the compound to be analyzed (0.8 μL. 5 mM) or ethoxycoumarin (positive control, 0.8 μL, 5 mM) was added and the mixture was warmed to 37° C. for 5 minutes. The mouse microsomes (CD-1, 5 μL, thawed in a 37° C. water bath before use, 20 mg/mL, Life Technologies) were added. At selected time points (0, 15, 30, 45, 60 and 120 minutes) aliquots (15 μL) were withdrawn from the plate and quenched upon addition to cold acetonitrile (60 μL), containing an internal standard (5 μM) in a 96-well plate. The samples were centrifuged at 13,000 rpm for 10 minutes at 4° C. The supernatant (40 μL) was withdrawn and transferred to a sample vial with insert. The samples were analyzed by LC-MS.
LC-MS analysis was performed on a platform comprising a Thermo Scientific Dionex Ultimate 3000 and a Bruker amaZon SL equipped with an electrospray ionization source controlled by Bruker Hystar 3.2. […] The flow rate was maintained at 400 μL/min. The initial flow conditions were 60% solvent A (water containing 0.1% acetic acid) and 40% solvent B (methanol containing 0.1% acetic acid).
Aliquots were taken over the course of two hours and analyzed by HPLG-MS using an internal standard to assess compound stability over time.

human ES motor neurons = test: Rescue of CPA toxicity by kinase inhibitors in dilution series (FIG. 3); settings: dilution series, FIG. 3
MLK1/MAP3K9 = target: T1, MLK1/MAP3K9 (Homo sapiens, UniProt P80192); test: Radiolabeled ATP kinase assay (Reaction Biology Corp.), MLK1; type: biochemical; settings: [Cmpd] 0.1 μM, 10 μM ATP
T1 construct: purchased Reaction Biology Corp
Procedure: (§1) Meanwhile, the same analogs were analyzed in a radiolabeled ATP assay (10 μM ATP; Reaction Biology Corp.) to compare the extent to which they could inhibit the activity of HGK, MLK1, or MLK3 in a cell-free environment (Table S3 and S4).

MLK3/MAP3K11 = target: T2, MLK3/MAP3K11 (Homo sapiens, UniProt Q16584); test: Radiolabeled ATP kinase assay (Reaction Biology Corp.), MLK3; type: biochemical; settings: [Cmpd] 0.1 μM; 10 μM ATP
T2 construct: purchased Reaction Biology Corp
Procedure: as §1

HGK/MAP4K4 = HGK/MAP4K4 (Homo sapiens, UniProt O95819); test: Radiolabeled ATP kinase assay (Reaction Biology Corp.), HGK; type: biochemical; set-up: purchased Reaction Biology Corp; settings: 10 μM ATP, read-out: % Enzyme Activity (relative to DMSO controls), HGK/MAP4K4, Data 1; for remaining activity at 0.025 µM: [Cmpd] 0.025 μM; for remaining activity at 0.1 µM: [Cmpd] 0.1 μM
Procedure: as §1

[3] = Homo sapiens, Neuron, CPA 33 μM, read-out: EC50
[4] = Homo sapiens, Neuron, CPA 33 μM
[5] = read-out: % Enzyme Activity Remaining (relative to DMSO controls), MLK1/MAP3K9, Data 1
[6] = read-out: % Enzyme Activity Remaining (relative to DMSO controls), MLK1/MAP3K9, Data 2

Chain of HGK/MAP4K4 (O95819 whole entry): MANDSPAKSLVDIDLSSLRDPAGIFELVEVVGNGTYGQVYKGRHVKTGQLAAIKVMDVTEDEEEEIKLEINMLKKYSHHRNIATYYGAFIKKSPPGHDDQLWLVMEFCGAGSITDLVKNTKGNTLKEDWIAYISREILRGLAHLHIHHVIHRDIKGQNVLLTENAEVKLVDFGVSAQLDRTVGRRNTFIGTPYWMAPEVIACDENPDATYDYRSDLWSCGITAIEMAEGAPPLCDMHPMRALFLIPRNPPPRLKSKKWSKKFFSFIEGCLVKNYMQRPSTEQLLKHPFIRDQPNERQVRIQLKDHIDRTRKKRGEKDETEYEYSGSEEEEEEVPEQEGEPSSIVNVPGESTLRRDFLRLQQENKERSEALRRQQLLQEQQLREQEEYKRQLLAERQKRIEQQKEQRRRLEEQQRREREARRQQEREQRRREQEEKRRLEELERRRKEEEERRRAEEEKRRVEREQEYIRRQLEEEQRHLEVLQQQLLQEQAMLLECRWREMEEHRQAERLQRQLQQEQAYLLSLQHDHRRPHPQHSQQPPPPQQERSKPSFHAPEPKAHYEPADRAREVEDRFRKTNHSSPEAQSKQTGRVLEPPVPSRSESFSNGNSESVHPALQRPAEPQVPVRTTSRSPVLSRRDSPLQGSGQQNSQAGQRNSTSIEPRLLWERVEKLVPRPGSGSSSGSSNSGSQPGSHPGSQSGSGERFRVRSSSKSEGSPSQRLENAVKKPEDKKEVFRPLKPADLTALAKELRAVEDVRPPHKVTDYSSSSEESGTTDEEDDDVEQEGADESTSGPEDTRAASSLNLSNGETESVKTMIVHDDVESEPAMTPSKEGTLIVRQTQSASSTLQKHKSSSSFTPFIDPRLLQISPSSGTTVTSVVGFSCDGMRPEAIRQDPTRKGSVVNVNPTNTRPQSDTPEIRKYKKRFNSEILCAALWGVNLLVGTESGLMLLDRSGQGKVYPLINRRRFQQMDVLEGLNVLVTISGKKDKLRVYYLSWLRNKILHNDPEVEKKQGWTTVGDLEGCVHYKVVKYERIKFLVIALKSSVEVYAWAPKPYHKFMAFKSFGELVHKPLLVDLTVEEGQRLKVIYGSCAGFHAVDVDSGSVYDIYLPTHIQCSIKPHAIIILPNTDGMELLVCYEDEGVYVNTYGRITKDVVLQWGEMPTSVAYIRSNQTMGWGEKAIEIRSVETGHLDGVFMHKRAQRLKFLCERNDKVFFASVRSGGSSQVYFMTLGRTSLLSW
T2 sequence (Q16584 whole entry): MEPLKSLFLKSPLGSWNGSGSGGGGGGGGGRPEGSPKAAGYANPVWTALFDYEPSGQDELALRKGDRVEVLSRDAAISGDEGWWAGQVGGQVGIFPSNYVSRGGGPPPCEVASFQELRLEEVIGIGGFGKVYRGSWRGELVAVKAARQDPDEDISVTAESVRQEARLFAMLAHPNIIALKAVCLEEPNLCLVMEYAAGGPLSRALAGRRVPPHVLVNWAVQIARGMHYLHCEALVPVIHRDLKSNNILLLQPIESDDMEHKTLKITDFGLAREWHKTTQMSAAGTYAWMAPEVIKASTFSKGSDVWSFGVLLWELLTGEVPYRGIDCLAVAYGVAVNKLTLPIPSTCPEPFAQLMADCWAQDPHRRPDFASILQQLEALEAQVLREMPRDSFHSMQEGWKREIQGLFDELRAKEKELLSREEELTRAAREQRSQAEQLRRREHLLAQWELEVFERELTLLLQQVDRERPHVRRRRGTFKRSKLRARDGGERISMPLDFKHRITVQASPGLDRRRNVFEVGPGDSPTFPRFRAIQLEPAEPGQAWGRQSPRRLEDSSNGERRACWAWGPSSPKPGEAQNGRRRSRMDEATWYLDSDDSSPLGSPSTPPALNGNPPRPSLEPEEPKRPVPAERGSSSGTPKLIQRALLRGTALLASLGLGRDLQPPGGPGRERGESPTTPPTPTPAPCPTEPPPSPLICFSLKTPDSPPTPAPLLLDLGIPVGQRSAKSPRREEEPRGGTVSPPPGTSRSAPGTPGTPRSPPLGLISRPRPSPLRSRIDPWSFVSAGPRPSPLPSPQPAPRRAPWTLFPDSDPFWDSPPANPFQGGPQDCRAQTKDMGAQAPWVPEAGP
T1 sequence (P80192 whole entry): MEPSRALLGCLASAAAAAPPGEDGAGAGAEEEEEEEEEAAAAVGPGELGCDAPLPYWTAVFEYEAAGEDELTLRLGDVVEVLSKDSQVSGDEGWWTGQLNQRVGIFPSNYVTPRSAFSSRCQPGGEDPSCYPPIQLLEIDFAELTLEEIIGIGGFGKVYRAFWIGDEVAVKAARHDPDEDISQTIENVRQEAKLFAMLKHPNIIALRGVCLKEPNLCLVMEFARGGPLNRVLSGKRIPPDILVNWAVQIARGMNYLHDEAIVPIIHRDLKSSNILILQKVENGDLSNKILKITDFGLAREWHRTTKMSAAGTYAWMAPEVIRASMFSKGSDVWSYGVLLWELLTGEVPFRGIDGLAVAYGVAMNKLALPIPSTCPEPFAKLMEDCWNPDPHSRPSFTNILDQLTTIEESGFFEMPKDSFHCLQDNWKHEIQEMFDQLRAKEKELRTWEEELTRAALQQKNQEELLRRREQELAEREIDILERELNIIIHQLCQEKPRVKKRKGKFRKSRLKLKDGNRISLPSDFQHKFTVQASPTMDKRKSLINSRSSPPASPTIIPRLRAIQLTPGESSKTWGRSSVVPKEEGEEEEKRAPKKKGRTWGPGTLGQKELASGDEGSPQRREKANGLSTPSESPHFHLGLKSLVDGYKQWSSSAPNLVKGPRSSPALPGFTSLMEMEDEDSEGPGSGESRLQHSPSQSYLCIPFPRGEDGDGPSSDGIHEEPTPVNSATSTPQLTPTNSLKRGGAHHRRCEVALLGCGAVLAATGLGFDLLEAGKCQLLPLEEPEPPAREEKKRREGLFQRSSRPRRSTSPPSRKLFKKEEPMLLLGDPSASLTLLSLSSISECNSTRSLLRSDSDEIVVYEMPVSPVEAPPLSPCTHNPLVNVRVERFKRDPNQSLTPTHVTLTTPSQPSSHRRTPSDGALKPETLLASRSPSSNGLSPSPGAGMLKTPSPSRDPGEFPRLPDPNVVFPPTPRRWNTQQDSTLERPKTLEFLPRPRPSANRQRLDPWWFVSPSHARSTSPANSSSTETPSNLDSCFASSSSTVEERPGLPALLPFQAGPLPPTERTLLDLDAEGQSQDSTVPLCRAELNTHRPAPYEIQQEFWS

Compound	EC50 [1, 3]	Emax [1, 4]	viability at 1 µM ([1]; Homo sapiens, Neuron)	remaining activity at 0.1 µM (MLK1/MAP3K9; [5])	remaining activity at 0.1 µM (MLK1/MAP3K9; [6])	% Enzyme Activity Remaining (relative to DMSO controls), MLK3/MAP3K11, Data 1 (MLK3/MAP3K11)	% Enzyme Activity Remaining (relative to DMSO controls), MLK3/MAP3K11, Data 2 (MLK3/MAP3K11)	remaining activity at 0.025 µM (HGK/MAP4K4)	remaining activity at 0.1 µM (HGK/MAP4K4)	further results
O[C@@H]1CCN(Cc2ccc(-c3cnc4[nH]cc(-c5cccc(Cl)c5)c4c3)cc2)C1 [Compound 12l, (R)-1-(4-(3-(3-Chlorophenyl)-1H-pyrrolo[2,3-b]pyridin-5-yl)benzyl)pyrrolidin-3-ol]	90 nM	115%	–	–	–	–	–	–	–	Kp at 30 min ([2]; 10 mg/kg): 1.7; concentration at 30 min ([2]; 10 mg/kg, read-out: brain): < 1000 ng/g and > 2.48 µM; concentration at 30 min ([2]; 10 mg/kg, read-out: plasma): < 600 ng/mL and < 1.49 µM; toxicity at this concentration ([2]; 20 mg/kg): ^cCompound was toxic at this concentration
CN1CC2CCC(C1)N2Cc1ccc(-c2cnc3[nH]cc(-c4cccc(Cl)c4)c3c2)cc1 [Compound 12f, 3-(3-Chlorophenyl)-5-(4-((3-methyl-3,8-diazabicyclo[3.2.1]octan-8-yl)methyl)phenyl)-1H-pyrrolo[2,3-b]pyridine]	110 nM	116%	–	–	–	–	–	–	–	concentration giving complete rescue from CPA ([1]; CPA 33 μM): 0.3 µM; half-life at 20 μM (in vitro): 158 min
Cn1cc(/C=C2\C(=O)Nc3ccc(S(N)(=O)=O)cc32)c2ccccc21 [Syk inhibitor]	–	–	–	–	–	–	–	–	–	rescue of CPA toxicity (human ES motor neurons): dose-dependent rescue of CPA toxicity
JAK3 inhibitor IV	–	–	–	–	–	–	–	–	–	rescue of CPA toxicity (human ES motor neurons): dose-dependent rescue of CPA toxicity
O[C@@H]1CCN(Cc2ccc(-c3cnc4[nH]cc(-c5cccc(F)c5)c4c3)cc2)C1 [Compound 12i, (R)-1-(4-(3-(3-Fluorophenyl)-1H-pyrrolo[2,3-b]pyridin-5-yl)benzyl)pyrrolidin-3-ol]	50 nM	115%	–	–	–	–	–	–	–	Kp at 30 min ([2]; 10 mg/kg): 3.7; Kp at 30 min ([2]; 20 mg/kg): 2.8; concentration at 30 min ([2]; 10 mg/kg, read-out: brain): 2240 ng/g and 5.78 µM; concentration at 30 min ([2]; 10 mg/kg, read-out: plasma): < 600 ng/mL and < 1.55 µM; concentration at 30 min ([2]; 20 mg/kg, read-out: brain): 9780 ng/g and 25.2 µM; concentration at 30 min ([2]; 20 mg/kg, read-out: plasma): 3490 ng/mL and 9 µM
CCSCc1ccc2c(c1)c1c3c(c4c5cc(CSCC)ccc5n5c4c1n2[C@H]1C[C@](O)(C(=O)OC)[C@]5(C)O1)CNC3=O [CEP1347]	–	–	–	–	–	–	–	–	–	rescue of CPA toxicity (human ES motor neurons): dose-dependent rescue of CPA toxicity
CCN(CC)C(=O)c1ccc(Nc2nc(OCC3CCCCC3)c3[nH]cnc3n2)cc1 [NU6140]	–	–	–	–	–	–	–	–	–	rescue of CPA toxicity (human ES motor neurons): dose-dependent rescue of CPA toxicity
CN1CCN(Cc2ccc(-c3cnc4[nH]cc(-c5ccc(N)nc5)c4c3)cc2)CC1 [Compound 7m, 5-(5-(4-((4-Methylpiperazin-1-yl)methyl)phenyl)-1H-pyrrolo[2,3-b]pyridin-3-yl)pyridin-2-amine]	213 nM	76.1%	76.1%	96.7%	96.3%	67.62%	67.85%	38.4%	10.8%	–
CN1CCN(Cc2ccc(-c3cnc4[nH]cc(-c5cccc(NC(=O)NCc6ccco6)c5)c4c3)cc2)CC1 [Compound 7ay, 1-(Furan-2-ylmethyl)-3-(3-(5-(4-((4-methylpiperazin-1-yl)methyl)phenyl)-1H-pyrrolo[2,3-b]pyridin-3-yl)phenyl)urea]	91.2 nM	9.29%	4.58%	88.5%	91.8%	84.43%	83.57%	93.8%	79%	–
CN1CCN(Cc2ccc(-c3cnc4[nH]cc(-c5cccc6[nH]ncc56)c4c3)cc2)CC1 [Compound 7aa, 4-(5-(4-((4-Methylpiperazin-1-yl)methyl)phenyl)-1H-pyrrolo[2,3-b]pyridin-3-yl)-1H-indazole]	208 nM	134%	112%	52.9%	51.7%	31.88%	31.78%	2.75%	-1.36%	half-life at 20 μM (in vitro): 9 min
CN1CCN(Cc2ccc(-c3cnc4[nH]cc(-c5cccc(F)c5)c4c3)cc2)CC1 [Compound 7y, 3-(3-Fluorophenyl)-5-(4-((4-methylpiperazin-1-yl)methyl)phenyl)-1H-pyrrolo[2,3-b]pyridine]	433 nM	104%	86.4%	57.1%	58.1%	40.75%	43.09%	7.85%	1.53%	half-life at 20 μM (in vitro): > 30 min
CN1CCN(Cc2ccc(-c3cnc4[nH]cc(-c5ccc(N)cc5)c4c3)cc2)CC1 [Compound 7e, 4-(5-(4-((4-Methylpiperazin-1-yl)methyl)phenyl)-1H-pyrrolo[2,3-b]pyridin-3-yl)aniline]	228 nM	111%	96.1%	51.7%	54%	51.43%	54.29%	24%	7.41%	–
CN1CCN(Cc2ccc(-c3cnc4[nH]cc(-c5cnc(N)nc5)c4c3)cc2)CC1 [Compound 7k, 5-(5-(4-((4-Methylpiperazin-1-yl)methyl)phenyl)-1H-pyrrolo[2,3-b]pyridin-3-yl)pyrimidin-2-amine]	316 nM	71%	71%	69%	70.8%	71.64%	75.32%	48.3%	16.5%	–
CN1CCN(Cc2ccc(-c3cnc4[nH]cc(-c5ccc(F)c(C(=O)O)c5)c4c3)cc2)CC1 [Compound 7i, 2-Fluoro-5-(5-(4-((4-methylpiperazin-1-yl)methyl)phenyl)-1H-pyrrolo[2,3-b]pyridin-3-yl)benzoic acid]	–	13.3%	7.82%	80.2%	79.4%	57.91%	50.75%	85.3%	54.6%	EC50 ([1]; CPA 33 μM): Ambiguous
